Laboratory results: PubChem BioAssay (NCI)
Values joined by “and” are separate entries in the source; they are usually repeats but may differ in a detail not shown here. Equal values may be shown once.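 Briefly, cells in 96-well plates were exposed to five compound concentrations for 48 h, and endpoints were estimated by linear interpolation. GI50: concentration for 50% inhibition of growth. At the TGI there is no net growth.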

Legend:
Assay in all cases: NCI tumour cell line growth inhibition, 48 h
MCF7 breast = tested on: MCF7 breast
KM12 colon = tested on: KM12 colon
SK-MEL-5 melanoma = tested on: SK-MEL-5 melanoma
HL-60(TB) leukemia = tested on: HL-60(TB) leukemia
NCI-H226 lung = tested on: NCI-H226 lung
LOX IMVI melanoma = tested on: LOX IMVI melanoma
UO-31 renal = tested on: UO-31 renal
SW-620 colon = tested on: SW-620 colon
SF-539 CNS = tested on: SF-539 CNS
OVCAR-8 ovarian = tested on: OVCAR-8 ovarian

Structure (SMILES)	TGI (MCF7 breast) [µM]	TGI (KM12 colon)	TGI (SK-MEL-5 melanoma)	TGI (HL-60(TB) leukemia)	TGI (NCI-H226 lung)	TGI (LOX IMVI melanoma)	TGI (UO-31 renal) [µM]	TGI (SW-620 colon)	TGI (SF-539 CNS)	TGI (OVCAR-8 ovarian)	GI50 (MCF7 breast) [µM]	GI50 (KM12 colon) [µM]	GI50 (SK-MEL-5 melanoma) [µM]	GI50 (HL-60(TB) leukemia) [µM]	GI50 (NCI-H226 lung) [µM]	GI50 (UO-31 renal) [µM]	GI50 (SF-539 CNS) [µM]	GI50 (OVCAR-8 ovarian)	GI50 (LOX IMVI melanoma)
Clc1nc(-[n+]2ccc(-c3ccncc3)cc2)nc(Nc2ccccc2)c1Cl	> 100	> 100 µM	> 100 µM	> 100 µM	> 100 µM	> 100 µM	> 100	> 100 µM	> 100 µM										
CC1(O)C=CC2CCC1C2O (configuration not stated)		> 100 µM	> 100 µM	> 100 µM	> 100 µM	35.9 µM	> 100		> 100 µM	> 100 µM									
O=C(c1ccc2ccccc2c1)C1S(=O)(=O)OCCOS1(=O)=O	> 100	> 100 µM	> 100 µM	> 100 µM		> 100 µM	> 100			> 100 µM									
O=C1c2[nH]cc(CN3CCNCC3)c2C(=O)c2c1c(O)c1ccccc1c2O	> 100	53 µM	3.14 µM	> 100 µM	40.7 µM		5.96		3.31 µM		32.9	20.9	1.64	22	12.2	1.7	1.85		
COC(=O)c1ccc(-c2nc(C#N)c(N)o2)cc1	> 100	> 100 µM	> 100 µM		> 100 µM	> 100 µM	> 100	> 100 µM	> 100 µM	> 100 µM									
CCC1(CC)C(=O)CC[C@@]2(C)C1=CC[C@H]1[C@@H]3CC[C@H](O)[C@@]3(C)CC[C@@H]12		> 100 µM	> 100 µM	46.4 µM	87.5 µM	37.8 µM	34.7	63.1 µM	> 100 µM	56.5 µM									
COP(=O)(OC)C(N)CCSC (configuration not stated)	> 100	> 100 µM	> 100 µM	> 100 µM	> 100 µM	> 100 µM	> 100	> 100 µM		> 100 µM									
C/C(O)=C(\C=N\C(N)=S)C(=O)Nc1ccccc1C	> 100	> 100 µM	> 100 µM		> 100 µM	> 100 µM	> 100	> 100 µM	> 100 µM	> 100 µM									
O=C1NC(=S)N/C1=C/c1ccccc1O	> 100		> 100 µM	> 100 µM	> 100 µM	> 100 µM	> 100	> 100 µM	> 100 µM	> 100 µM									
CCCCC[C@@H]1OCO[C@@]2(C)/C=C(C)/C=C/C(=O)O[C@H]([C@@H](C)[C@@H](O)[C@H](C)[C@@]3(O)C[C@@H](O[C@H]4C[C@@H](O)[C@H](O)[C@@H](C)O4)[C@H](C)[C@@H](C)O3)[C@@H](OC)/C=C/C=C(\C)C[C@@H]1[C@@H]2O (stereo in doubt)	3.32	5.36 µM	< 0.005 µM	0.0587 µM	0.0468 µM			6.67 µM	3.23 µM	7.38 µM									
CCOc1ccc2[nH]c3c(C)c4cc[n+](C)cc4c(C)c3c2c1		14.4 µM and 21.6 µM	4.37 µM and 4.31 µM	29.9 µM and > 52.2 µM	0.965 µM and 2.88 µM	19.4 µM and > 67.1 µM	> 100	15.6 µM and > 83.8 µM	1.63 µM and 2.65 µM	9.87 µM and 11.6 µM								0.236 µM and 0.51 µM	2.99 µM and 11.4 µM
